This is an account of results in US20130121994A1, “TRIAZOLOPYRIDINE DERIVATIVES” (BAYER INTELLECTUAL PROPERTY GMBH, priority 2009, published 2013).

For orientation: IC50 means the concentration that gives 50% inhibition. The low end stands for greater potency in that assay, the high end for weaker potency in that assay.

SMILES strings stand for the structures. Bounds are passed on as bounds.

The target of the assay is T1, human kinase Mps-1 (Homo sapiens, UniProt P33981).
T1 construct: N-terminally GST-tagged human full length recombinant Mps-1 kinase; GST (N); purchased Invitrogen, Karslruhe, Germany PV4071
T1 sequence (P33981 1-857): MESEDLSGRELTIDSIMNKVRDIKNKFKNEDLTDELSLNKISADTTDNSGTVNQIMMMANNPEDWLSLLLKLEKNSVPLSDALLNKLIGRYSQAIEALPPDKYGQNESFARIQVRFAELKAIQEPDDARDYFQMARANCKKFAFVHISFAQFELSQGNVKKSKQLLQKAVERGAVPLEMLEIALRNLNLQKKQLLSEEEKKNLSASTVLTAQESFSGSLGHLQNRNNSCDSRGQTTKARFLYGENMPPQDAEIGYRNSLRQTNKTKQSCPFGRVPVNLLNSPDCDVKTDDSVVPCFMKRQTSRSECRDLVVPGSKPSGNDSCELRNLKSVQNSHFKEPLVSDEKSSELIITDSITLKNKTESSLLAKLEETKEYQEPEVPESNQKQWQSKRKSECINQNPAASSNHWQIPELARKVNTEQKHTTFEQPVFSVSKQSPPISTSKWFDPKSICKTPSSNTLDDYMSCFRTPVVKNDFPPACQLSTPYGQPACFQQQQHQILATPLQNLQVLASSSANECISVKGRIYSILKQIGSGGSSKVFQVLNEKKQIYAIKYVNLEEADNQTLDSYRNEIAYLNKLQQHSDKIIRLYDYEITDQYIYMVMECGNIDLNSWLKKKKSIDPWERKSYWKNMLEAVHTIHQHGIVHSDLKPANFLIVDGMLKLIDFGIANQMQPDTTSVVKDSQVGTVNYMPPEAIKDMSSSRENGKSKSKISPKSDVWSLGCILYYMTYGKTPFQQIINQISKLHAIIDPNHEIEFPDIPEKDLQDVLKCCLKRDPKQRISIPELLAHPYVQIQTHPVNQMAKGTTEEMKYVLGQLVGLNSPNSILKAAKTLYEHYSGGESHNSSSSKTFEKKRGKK
Description: Mps-1 kinase assay (HTRF). The assay is classed as biochemical. The procedure:
The human kinase Mps-1 phosphorylates a biotinylated substrate peptide. Detection of the phosphorylated product is achieved by homogenous time-resolved fluorescence resonance energy transfer (HTRF) from Europium-labelled anti-phospho-Serine/Threonine antibody as donor to streptavidin labelled with cross-linked allophycocyanin (SA-XLent) as acceptor. Compounds are tested for their inhibition of the kinase activity.
N-terminally GST-tagged human full length recombinant Mps-1 kinase (purchased from Invitrogen, Karslruhe, Germany, cat. no PV4071) was used. As substrate for the kinase reaction a biotinylated peptide of the amino-acid sequence […] (C-terminus in amide form, purchased from Biosynthan GmbH, Berlin) was used.
The concentration of Mps-1 in the assay was adjusted to the activity of the enzyme lot and was chosen appropriate to have the assay in the linear range, typical enzyme concentrations were in the range of about 1 nM (final conc. in the 5 μl assay volume).
The resulting mixture was incubated 1 h at 22° C. to allow the binding of the phosphorylated peptide to the anti-phospho(Ser/Thr)-Europium-antibody. Subsequently the amount of phosphorylated substrate was evaluated by measurement of the resonance energy transfer from the Europium-labelled anti-phospho(Ser/Thr) antibody to the Streptavidin-XLent.
For orientation: TR-FRET usually uses a lanthanide donor and a delayed reading to cut background.

`CC(C)(C)NC(=O)c1ccc(-c2ccc3nc(Nc4ccccc4C#N)nn3c2)cc1` [Example 11.014, N-tert-butyl-4-{2-[(2-cyanophenyl)amino][1,2,4]triazolo[1,5-a]pyridin-6-yl}benzamide] displayed an IC50 of 42.5 nM.
To `CCOCCNC(=O)c1ccc(Nc2nc3ccc(-c4ccc(C(=O)NCC(F)(F)F)cc4)cn3n2)c(OC)c1` [Example 11.015, N-(2-ethoxyethyl)-3-methoxy-4-[(6-{4-[(2,2,2-trifluoroethyl)carbamoyl]phenyl}[1,2,4]triazolo [1,5-a]pyridin-2-yl)amino]benzamide] belongs 1.64 nM.
To `COc1cc(C(=O)NCC(C)(C)O)ccc1Nc1nc2ccc(-c3ccc(C(=O)NCC(F)(F)F)cc3)cn2n1` [Example 11.016, N-(2-hydroxy-2-methylpropyl)-3-methoxy-4-[(6-{4-[(2,2,2-trifluoroethyl)carbamoyl]phenyl}[1,2,4]triazolo [1,5-a]pyridin-2-yl)amino]benzamide] belongs 1.29 nM; to `COc1cc(C(=O)NC(C)(C)CO)ccc1Nc1nc2ccc(-c3ccc(C(=O)NCC(F)(F)F)cc3)cn2n1` [Example 11.017, N-(1-hydroxy-2-methylpropan-2-yl)-3-methoxy-4-[(6-{4-[(2,2,2-trifluoroethyl)carbamoyl]phenyl}[1,2,4]triazolo [1,5-a]pyridin-2-yl)amino]benzamide], 1.73 nM.
`COc1cc(C(=O)NC(C)(C)CO)ccc1Nc1nc2ccc(-c3ccc(C(=O)NCC(F)(F)F)c(F)c3)cn2n1` [Example 11.018, 2-fluoro-4-[2-({4-[(1-hydroxy-2-methylpropan-2-yl)carbamoyl]-2-methoxyphenyl}amino)[1,2,4]triazolo[1,5-a]pyridin-6-yl]-N-(2,2,2-trifluoroethyl)benzamide] came in with an IC50 of 1.03 nM.
For the compound `COc1cc(C(=O)NCCO)ccc1Nc1nc2ccc(-c3ccc(C(=O)NCC(F)(F)F)cc3)cn2n1` [Example 11.019, N-(2-hydroxyethyl)-3-methoxy-4-[(6-{4-[(2,2,2-trifluoroethyl)carbamoyl]phenyl}[1,2,4]triazolo [1,5-a]pyridin-2-yl)amino]benzamide], half-maximal inhibition (IC50) was put at 1.78 nM.
To `COc1cc(C(=O)N(C)CCN(C)C(C)=O)ccc1Nc1nc2ccc(-c3ccc(C(=O)NCC(F)(F)F)cc3)cn2n1` [Example 11.020, N-{2-[acetyl(methyl)amino]ethyl}-3-methoxy-N-methyl-4-[(6-{4-[(2,2,2-trifluoroethyl)carbamoyl]phenyl}[1,2,4]triazolo [1,5-a]pyridin-2-yl)amino]benzamide] belongs 3.05 nM; to `COc1cc(C(=O)N(C)CCN(C)C(=O)OC(C)(C)C)ccc1Nc1nc2ccc(-c3ccc(C(=O)NCC(F)(F)F)cc3)cn2n1` [Example 11.021, tert-butyl {2-[{3-methoxy-4-[(6-{4-[(2,2,2-trifluoroethyl)carbamoyl]phenyl}[1,2,4]triazolo [1,5-a]pyridin-2-yl)amino]benzoyl}(methyl)amino]ethyl}methyl-carbamate], 3.5 nM.
In turn, `COc1cc(C(=O)NC(C)(C)CO)ccc1Nc1nc2ccc(-c3ccc(C(=O)NCC(C)C)cc3)cn2n1` [Example 11.022, N-(1-hydroxy-2-methylpropan-2-yl)-3-methoxy-4-[(6-{4-[(2-methylpropyl)carbamoyl]phenyl}[1,2,4]triazolo [1,5-a]pyridin-2-yl)amino]benzamide] had an IC50 of 4.36 nM.
Take `COc1cc(C(=O)NC(C)(C)CO)ccc1Nc1nc2ccc(-c3ccc(C(=O)NCCC(F)(F)F)cc3)cn2n1` [Example 11.023, N-(1-hydroxy-2-methylpropan-2-yl)-3-methoxy-4-[(6-{4-[(3,3,3-trifluoropropyl)carbamoyl]phenyl}[1,2,4]tria-zolo[1,5-a]pyridin-2-yl)amino]benzamide]: the 50% inhibitory concentration (IC50) was found to be 5.22 nM. The IC50 values of the last two compounds are within 1.5-fold of each other.
The compound `COc1cc(C(=O)NC(C)(C)CO)ccc1Nc1nc2ccc(-c3ccc(C(=O)NCC(F)(F)F)c(C)c3)cn2n1` [Example 11.024, 4-[2-({4-[(1-hydroxy-2-methylpropan-2-yl)carbamoyl]-2-methoxyphenyl}amino)[1,2,4]triazolo[1,5-a]pyridin-6-yl]-2-methyl-N-(2,2,2-trifluoroethyl)benzamide] returned an IC50 of 3.84 nM. The IC50 values of the last two compounds are within 1.5-fold of each other.
In turn, `COc1cc(C(=O)NCC(C)(C)O)ccc1Nc1nc2ccc(-c3ccc(C(=O)NCCC(F)(F)F)cc3)cn2n1` [Example 11.025, N-(2-hydroxy-2-methylpropyl)-3-methoxy-4-[(6-{4-[(3,3,3-trifluoropropyl)carbamoyl]phenyl}[1,2,4]tria-zolo[1,5-a]pyridin-2-yl)amino]benzamide] registered an IC50 of 7.31 nM.
The value for `COc1cc(C(=O)NC(C)(C)CO)ccc1Nc1nc2ccc(-c3ccc(C(=O)NCC(F)(F)F)c(Cl)c3)cn2n1` [Example 11.026, 2-chloro-4-[2-({4-[(1-hydroxy-2-methylpropan-2-yl)carbamoyl]-2-methoxyphenyl}amino)[1,2,4]triazolo[1,5-a]pyridin-6-yl]-N-(2,2,2-trifluoroethyl)benzamide] was 4.08 nM; that for `CCN(CC)C(=O)c1ccc(Nc2nc3ccc(-c4ccc(C(=O)NCC(C)(C)C)cc4)cn3n2)c(OC)c1` [Example 11.027, 4-[(6-{4-[(2,2-dimethylpropyl)carbamoyl]phenyl}[1,2,4]tria-zolo[1,5-a]pyridin-2-yl)amino]-N,N-diethyl-3-methoxybenzamide] was 35.8 nM.
To `CCOc1cc(C(=O)NCCO)ccc1Nc1nc2ccc(-c3ccc(C(=O)NCC(F)(F)F)cc3)cn2n1` [Example 11.028, 3-ethoxy-N-(2-hydroxyethyl)-4-[(6-{4-[(2,2,2-trifluoroethyl)carbamoyl]phenyl}[1,2,4]triazolo [1,5-a]pyridin-2-yl)amino]benzamide] belongs not above 1 nM; to `CCOc1cc(C(=O)NC(C)(C)CO)ccc1Nc1nc2ccc(-c3ccc(C(=O)NCC(F)(F)F)cc3)cn2n1` [Example 11.029, 3-ethoxy-N-(1-hydroxy-2-methylpropan-2-yl)-4-[(6-{4-[(2,2,2-trifluoroethyl)carbamoyl]phenyl}[1,2,4]triazolo [1,5-a]pyridin-2-yl)amino]benzamide], not above 1 nM.
To `CCOc1cc(C(=O)NC(C)(C)C)ccc1Nc1nc2ccc(-c3ccc(C(=O)NCC(F)(F)F)cc3)cn2n1` [Example 11.030, N-tert-butyl-3-ethoxy-4-[(6-{4-[(2,2,2-trifluoroethyl)carbamoyl]phenyl}[1,2,4]triazolo [1,5-a]pyridin-2-yl)amino]benzamide] belongs not above 1 nM; to `CCNC(=O)c1ccc(Nc2nc3ccc(-c4ccc(C(=O)NCC(F)(F)F)cc4)cn3n2)c(OCC)c1` [Example 11.031, 3-ethoxy-N-ethyl-4-[(6-{4-[(2,2,2-trifluoroethyl)carbamoyl]phenyl}[1,2,4]triazolo [1,5-a]pyridin-2-yl)amino]benzamide], not above 1 nM; to `CCOc1cc(C(=O)NCC(C)(C)O)ccc1Nc1nc2ccc(-c3ccc(C(=O)NCC(F)(F)F)cc3)cn2n1` [Example 11.032, 3-ethoxy-N-(2-hydroxy-2-methylpropyl)-4-[(6-{4-[(2,2,2-trifluoroethyl)carbamoyl]phenyl}[1,2,4]triazolo [1,5-a]pyridin-2-yl)amino]benzamide], not above 1 nM.
